pEC50: −log10 of the molar value.

One assay deals with T1, TLR8 (Homo sapiens, UniProt Q9NR97).
T1 construct: host or cells: HEK293 (HEK-BLUE-hTLR8)
T1 sequence (Q9NR97 27-1041): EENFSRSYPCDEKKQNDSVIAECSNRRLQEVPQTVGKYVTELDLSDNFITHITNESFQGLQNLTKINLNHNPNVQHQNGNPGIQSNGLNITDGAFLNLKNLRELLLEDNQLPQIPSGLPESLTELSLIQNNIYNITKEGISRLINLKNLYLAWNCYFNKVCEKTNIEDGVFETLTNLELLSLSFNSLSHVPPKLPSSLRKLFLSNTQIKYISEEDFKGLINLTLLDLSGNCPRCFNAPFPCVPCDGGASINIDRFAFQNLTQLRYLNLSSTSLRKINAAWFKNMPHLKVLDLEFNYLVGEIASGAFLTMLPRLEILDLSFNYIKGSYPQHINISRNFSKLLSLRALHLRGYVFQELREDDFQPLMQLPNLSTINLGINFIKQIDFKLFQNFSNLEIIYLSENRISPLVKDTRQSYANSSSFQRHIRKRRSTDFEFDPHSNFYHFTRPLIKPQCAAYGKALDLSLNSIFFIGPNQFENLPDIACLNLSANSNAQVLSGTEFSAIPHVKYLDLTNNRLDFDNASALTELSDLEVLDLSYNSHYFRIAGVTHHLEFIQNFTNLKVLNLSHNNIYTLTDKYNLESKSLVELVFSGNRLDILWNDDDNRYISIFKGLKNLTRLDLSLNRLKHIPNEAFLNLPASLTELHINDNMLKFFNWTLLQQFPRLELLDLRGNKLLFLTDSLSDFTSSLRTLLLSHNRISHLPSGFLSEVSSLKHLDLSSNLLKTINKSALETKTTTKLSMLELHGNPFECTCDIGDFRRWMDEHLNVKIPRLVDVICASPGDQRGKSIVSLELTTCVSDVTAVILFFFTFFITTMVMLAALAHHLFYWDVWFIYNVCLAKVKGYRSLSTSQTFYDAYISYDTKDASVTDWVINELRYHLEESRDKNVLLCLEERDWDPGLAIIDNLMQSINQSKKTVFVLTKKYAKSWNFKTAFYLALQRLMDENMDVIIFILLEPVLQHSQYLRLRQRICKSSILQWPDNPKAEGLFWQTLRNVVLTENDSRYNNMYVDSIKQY
Description: Cell activity assay of TLR8 (HEK-BLUE-hTLR8, SEAP reporter, Quanti-Blue). It is filed as cell-based. The note with it: HEK-BLUE-hTLR8 cells, 24 hours. As to the method:
(§1) In this experiment, TLR7 and TLR8 bioactivity assays of the compound of formula I were determined using a cellular test. This method was performed in human embryonic kidney cells (HEK293) expressing TLR family members such as TLR4, TLR7, TLR8, or TLR9. TLR agonist activates TLR, causing downstream NF-KB activation, thus activating the secreted embryonic alkaline phosphatase (SEAP) reporter gene. Quanti-Blue (InvivoGen) reagent was used to assay the SEAP activity, thus reflecting the activity of TLR7 and TLR8 agonists.
(§2) The detailed experimental method is as follows:
HEK-BLUE-hTLR7 and HEK-BLUE-hTLR8 cell lines were purchased from Invivogen company and cultured in DMEM medium containing 4.5 g/L glucose (Sigma-Aldrich) and 10% fetal bovine serum under a condition of a temperature of 37° C., a humidity of 95%, and 5% CO2.
The test concentration of the compound ranged from 0.5 nM to 15 μM, with a total of 10 concentration gradients. TLR7 or TLR8 agonists with known activity were added thereto as positive controls, and 1 μL of DMSO as a negative control.
Cell treatment was as follows: The cells were removed from the incubator and centrifuged to remove the culture medium, resuspended in a T-150 flask with 10 mL of pre-warmed PBS. 12 mL of pre-warmed culture medium was added thereto, and the cells were pipetted gently up and down, and counted under a microscope. A single cell suspension of 200,000 cells/mL was prepared immediately with culture medium, and 200 μL/well (40,000 cells/well) of the cell suspension was added to a 96-well plate. The final concentration of DMSO was 0.5%.
The compound was added thereto, and the mixture was incubated in a 5% CO2 incubator at 37° C. for 24 hours.
20 μL/well of supernatant was pipetted into 180 μL of Quanti-Blue preheated to 37° C., and the mixture was incubated at 37° C. for 1.5 hours, and the absorbance (OD value) at 650 nm was measured with a spectrophotometer. The calculation formula for the agonistic effect is as follows: • Effect %=(average OD value of the administration group-average OD value of the DMSO group)/(average OD value of the positive drug group-average OD value of the DMSO group)×100 • The concentration-effect curves were fitted with Graphpad software, and EC50 was calculated. The test results are shown in Table 4 (A represents <100 nM, B represents 100 nM to 250 nM, C represents 250 nM to […], D represents >2 μM, / represents not tested).
The term pEC50 denotes the EC50 on a negative log10 scale, so that one unit is a factor of ten. `CCCN(CCO)C(=O)C1=Cc2ccc(C3(C(=O)Nc4cncc(CN)c4)CC3)cc2N=C(N)C1` [Compound 12, 2-amino-8-(1-((5-(aminomethyl)pyridin-3-yl)carbamoyl)cyclopropyl)-N-(2-hydroxyethyl)-N-n-propyl-3H-benzo[b]azepine-4-carboxamide] gave a pEC50 of 6.60 to 7.00. Same read-out and setting: to `CCCN(CCO)C(=O)C1=Cc2ccc(C(=O)Nc3cnc4c(c3)CNCC4)cc2N=C(N)C1` [Compound 13, 2-amino-N^4-(2-hydroxyethyl)-N^4-n-propyl-N^8-(5,6,7,8-tetrahydro-1,6-naphthyridin-3-yl)-3H-benzo[b]azepine-4,8-dicarboxamide] belongs 6.00 to 6.60; to `CCCN(CCC)C(=O)C1=Cc2c(F)cc(C3(C(=O)Nc4cnc5c(c4)CNCC5)CC3)cc2N=C(N)C1` [Compound 5, 2-amino-6-fluoro-N,N-di-n-propyl-8-(1-((5,6,7,8-tetrahydro-1,6-naphthyridin-3-yl)carbamoyl)cyclopropyl)-3H-benzo[b]azepine-4-carboxamide], more than 7.00; to `CCCN(CCC)C(=O)C1=Cc2ccc(C(=O)Nc3cnc4c(c3)CNCC4)nc2N=C(N)C1` [Compound 1, 8-amino-N^6,N^6-di-n-propyl-N^2-(5,6,7,8-tetrahydro-1,6-naphthyridin-3-yl)-7H-pyrido[2,3-b]azepine-2,6-dicarboxamide], 6.00 to 6.60. `CCCN(CCC)C(=O)C1=Cc2ccc(C3(C(=O)Nc4cnc5c(c4)CNCC5)CC3)cc2N=C(N)C1` [Compound 3, 2-amino-N,N-di-n-propyl-8-(1-((5,6,7,8-tetrahydro-1,6-naphthyridin-3-yl)carbamoyl)cyclopropyl)-3H-benzo[b]azepine-4-carboxamide] showed a pEC50 of 6.60 to 7.00.

A further assay addresses T2, TLR7 (Homo sapiens, UniProt Q9NYK1).
T2 construct: host or cells: HEK293 (HEK-BLUE-hTLR7)
T2 sequence (Q9NYK1 27-1049): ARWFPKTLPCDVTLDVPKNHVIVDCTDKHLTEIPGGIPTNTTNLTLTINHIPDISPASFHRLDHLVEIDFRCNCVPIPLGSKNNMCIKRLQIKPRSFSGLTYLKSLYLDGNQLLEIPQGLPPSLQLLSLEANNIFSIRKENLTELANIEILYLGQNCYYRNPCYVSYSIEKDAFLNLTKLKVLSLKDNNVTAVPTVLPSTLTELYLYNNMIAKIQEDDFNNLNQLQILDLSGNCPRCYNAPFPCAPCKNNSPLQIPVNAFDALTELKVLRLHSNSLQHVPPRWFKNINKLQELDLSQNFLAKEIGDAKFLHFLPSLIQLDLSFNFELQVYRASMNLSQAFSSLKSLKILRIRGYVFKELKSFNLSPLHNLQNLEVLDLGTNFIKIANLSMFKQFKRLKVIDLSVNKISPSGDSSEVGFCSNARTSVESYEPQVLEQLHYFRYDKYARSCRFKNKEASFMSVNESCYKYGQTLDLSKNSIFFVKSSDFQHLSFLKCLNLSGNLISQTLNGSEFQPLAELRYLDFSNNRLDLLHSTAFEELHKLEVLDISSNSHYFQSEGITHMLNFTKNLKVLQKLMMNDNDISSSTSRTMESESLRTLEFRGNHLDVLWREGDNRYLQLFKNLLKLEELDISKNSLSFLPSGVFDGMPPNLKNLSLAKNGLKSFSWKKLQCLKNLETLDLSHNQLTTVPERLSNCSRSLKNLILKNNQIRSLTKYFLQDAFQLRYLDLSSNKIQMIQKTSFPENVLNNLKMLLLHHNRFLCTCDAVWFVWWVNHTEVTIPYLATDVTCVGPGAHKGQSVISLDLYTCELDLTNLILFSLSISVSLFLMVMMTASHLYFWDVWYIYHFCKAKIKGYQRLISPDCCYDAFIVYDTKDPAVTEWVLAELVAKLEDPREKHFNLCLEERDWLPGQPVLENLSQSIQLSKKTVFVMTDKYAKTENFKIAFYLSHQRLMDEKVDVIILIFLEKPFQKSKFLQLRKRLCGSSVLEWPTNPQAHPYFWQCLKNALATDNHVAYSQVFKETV
Description: Cell activity assay of TLR7 (HEK-BLUE-hTLR7, SEAP reporter, Quanti-Blue). It is filed as cell-based. The note with it: HEK-BLUE-hTLR7 cells, 24 hours. On the procedure: as §1, §2
HEK-BLUE-hTLR7 and HEK-BLUE-hTLR8 cell lines were purchased from Invivogen company and cultured in DMEM medium containing 4.5 g/L glucose (Sigma-Aldrich) and 10% fetal bovine serum under a condition of a temperature of 37° C., a humidity of 95%, and 5% CO2. […]
Cell treatment was as follows: The cells were removed from the incubator and centrifuged to remove the culture medium, resuspended in a T-150 flask with 10 mL of pre-warmed PBS. 12 mL of pre-warmed culture medium was added thereto, and the cells were pipetted gently up and down, and counted under a microscope. […]
20 μL/well of supernatant was pipetted into 180 μL of Quanti-Blue preheated to 37° C., and the mixture was incubated at 37° C. for 1.5 hours, and the absorbance (OD value) at 650 nm was measured with a spectrophotometer. […]
Consider `CCCN(CCO)C(=O)C1=Cc2ccc(C(=O)Nc3cnc4c(c3)CNCC4)cc2N=C(N)C1` [Compound 13, 2-amino-N^4-(2-hydroxyethyl)-N^4-n-propyl-N^8-(5,6,7,8-tetrahydro-1,6-naphthyridin-3-yl)-3H-benzo[b]azepine-4,8-dicarboxamide], for which the pEC50 is less than 5.70.

For the origin of these results see patent US20240299572A1, “NITROGEN-CONTAINING COMPOUND, CONJUGATE CONTAINING SAID COMPOUND, AND APPLICATION THEREOF” (SHANGHAI DE NOVO PHARMATECH CO., LTD., priority 2021, published 2024).
